According to paper PMC4789100 (Environment international, 2009):
Several values for one entry are separate records, joined by “and”; a condition that tells them apart may be missing. Equal entries are not always repeated. Entries after “also recorded” stand apart in the source; their conditions may differ. Where two headings read alike, the source gives them in different places.

Columns and labels:
[1] = molecular target: T1, sheep placental cytosolic estrogen sulfotransferase (estradiol as substrate) (Ovis aries, UniProt A0ACI6NYW9); assay type: biochemical
T1 sequence (A0ACI6NYW9 1-296): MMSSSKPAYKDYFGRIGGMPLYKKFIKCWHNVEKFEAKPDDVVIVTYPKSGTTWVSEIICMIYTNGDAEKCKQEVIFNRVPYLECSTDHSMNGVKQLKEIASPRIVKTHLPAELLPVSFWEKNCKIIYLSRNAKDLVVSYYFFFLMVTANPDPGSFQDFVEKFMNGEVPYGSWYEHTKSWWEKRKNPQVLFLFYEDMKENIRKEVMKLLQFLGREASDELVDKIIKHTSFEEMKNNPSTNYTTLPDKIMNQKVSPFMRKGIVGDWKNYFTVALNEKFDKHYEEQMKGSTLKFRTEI

[2] = system: expressed human SULT1E1; conditions: cited from earlier work
[3] = cited from earlier work
[4] = system: sheep placental microsomes; assay: Triclosan glucuronidation in placental microsomes with 14C-UDPGA; assay type: in vitro ADME; conditions: 1 μM Triclosan; limit of detection <0.5 pmol/min/mg protein
[5] = Triclosan sulfonation in placental cytosol with 35S-PAPS; assay type: in vitro ADME, sheep; conditions: sheep, sheep placental cytosol, pH 7.4
[6] = system: sheep placental cytosol; assay: as above; assay type: in vitro ADME
[7] = estradiol as substrate, mean±S.D., n=3

`O=C(Nc1ccc(Cl)c(Cl)c1)Nc1ccc(Cl)cc1O` [2′OH-TCC, 2′-hydroxy-triclocarban] gave an IC50 ([1]; read-out: IC50 for inhibition of estradiol sulfonation, 1 nM estradiol) of 0.31 ± 0.04 µM.

For `Oc1c(Cl)cc(-c2ccc(Cl)c(Cl)c2)cc1Cl` [4′OH-CB79, 4-hydroxy-3,3′,4′,5-tetrachlorobiphenyl], the IC50 ([2]; ref Kester et al., 2000) is listed as 0.0002 to 0.0006 µM.

For `C[C@]12CC[C@@H]3c4ccc(O)cc4CC[C@H]3[C@@H]1CC[C@@H]2O` [Estradiol, 17-beta-estradiol], the “Estradiol concentration above which partial substrate inhibition is displayed” value ([2]; ref Zhang et al.,1998) is listed as “above 20 nM”, the “Ki, constant for partial inhibition of estradiol sulfotransferase activity by substrate” value [1, 7] is listed as 0.0547 ± 0.0253 µM and the “Vmin, plateau low rate at high estradiol concentrations” value [1, 7] is listed as 12.1±7.7 pmol/min/mg protein.

For `Oc1cc(Cl)ccc1Oc1ccc(Cl)cc1Cl` [Triclosan, 5-chloro-2(2,4-dichlorophenoxy)-phenol], the “Reported mean concentration of total Triclosan” value (“Reported mean concentration” for short) ([3]; Breast milk, Sweden, Control female, ref Allmyr et al., 2006b) is listed as 0.02 ng/g and 0.07 nM, the “Reported mean concentration” value ([3]; Breast milk, Sweden, Exposed female, ref Allmyr et al., 2006b) is listed as 0.54 ng/g and 1.87 nM and the “Reported mean concentration” value ([3]; Serum, Australia, Female 2002, ref Allmyr et al., 2008) is listed as 14 ng/g and 48.4 nM. For the same compound, the “Reported mean concentration” value ([3]; Serum, Australia, Female 2004, ref Allmyr et al., 2008) was 7.2 ng/g and 24.9 nM, the “Reported mean concentration” value ([3]; Serum, Australia, Male 2004, ref Allmyr et al., 2008) was 12 ng/g and 41.5 nM and the “Reported mean concentration” value ([3]; Serum, Sweden, Control female, ref Allmyr et al., 2006b) was 0.07 ng/g and 0.25 nM. For the same compound, the “Reported mean concentration” value ([3]; Serum, Sweden, Exposed female, ref Allmyr et al., 2006b) was 16 ng/g and 55.3 nM, the “Reported mean concentration” value ([3]; Urine, United States, Female, ref Calafat et al., 2008) was 10.6 μg/L and 36.6 nM and the “Reported mean concentration” value ([3]; Urine, United States, Male, ref Calafat et al., 2008) was 16.2 μg/L and 56.0 nM. For the same compound, the Glucuronidation [4] was “not a substrate for glucuronidation; also recorded: no detectable glucuronidation”, the Km at 15 min [5] was 1.14 ± 0.18 µM and the “Sulfonation apparent Vmax” value ([6]; Triclosan 0.1 to 10 μM, mean±S.D. of three individual samples) was 160±26 pmol/min/mg protein. For the same compound, the “Fraction of Triclosan that would be sulfonated” value ([6]; conditions of estradiol or estrone sulfonation assay with 1 nM Triclosan) was “less than 0.1%”.
